The NIST ThermoML archive (doi:10.1016/j.jct.2011.07.005)
± gives the expanded uncertainty stated by the source.

Settings: Liquid; for mass density: Vibrating tube method

CCCCC(CC)COC(=O)CCCCCCCCC(=O)OCC(CC)CCCC (centres undefined) [bis(2-ethylhexyl) decanedioate]
Settings	mass density [kg/m3]	viscosity [mPa·s]
278.15 K, 101.33 kPa	924.7 ± 1.6	–
278.15 K, Concentric cylinders viscometry	–	42.04 ± 0.95
283.15 K, 101.33 kPa	921.2 ± 1.6	–
283.15 K, Concentric cylinders viscometry	–	32.77 ± 0.74
288.15 K, 101.33 kPa	917.6 ± 1.6	–
288.15 K, Concentric cylinders viscometry	–	26.01 ± 0.59
293.15 K, 101.33 kPa	913.9 ± 1.6	–
293.15 K, Concentric cylinders viscometry	–	21 ± 0.48
298.15 K, 100 kPa	909.8 ± 1.6	–
298.15 K, 101.33 kPa	910.3 ± 1.6	–
298.15 K, 1000 kPa	910.4 ± 1.6	–
298.15 K, 5000 kPa	912.8 ± 1.6	–
298.15 K, 10000 kPa	915.6 ± 1.6	–
298.15 K, 15000 kPa	918.4 ± 1.6	–
298.15 K, 20000 kPa	921.2 ± 1.6	–
298.15 K, 30000 kPa	926.4 ± 1.6	–
298.15 K, 40000 kPa	931.4 ± 1.6	–
298.15 K, 45000 kPa	933.8 ± 1.6	–
298.15 K, 50000 kPa	936.1 ± 1.6	–
298.15 K, 60000 kPa	940.6 ± 1.6	–
298.15 K, Concentric cylinders viscometry	–	17.21 ± 0.39
303.15 K, 101.33 kPa	906.7 ± 1.6	–
303.15 K, Concentric cylinders viscometry	–	14.32 ± 0.32
308.15 K, 101.33 kPa	903.1 ± 1.6	–
308.15 K, Concentric cylinders viscometry	–	12.07 ± 0.27
313.15 K, 101.33 kPa	899.5 ± 1.5	–
313.15 K, Concentric cylinders viscometry	–	10.28 ± 0.23
318.15 K, 101.33 kPa	895.9 ± 1.5	–
318.15 K, Concentric cylinders viscometry	–	8.845 ± 0.2
323.15 K, 100 kPa	892 ± 1.5	–
323.15 K, 101.33 kPa	892.3 ± 1.5	–
323.15 K, 1000 kPa	892.6 ± 1.5	–
323.15 K, 5000 kPa	895.3 ± 1.6	–
323.15 K, 10000 kPa	898.5 ± 1.6	–
323.15 K, 15000 kPa	901.7 ± 1.6	–
323.15 K, 20000 kPa	904.7 ± 1.6	–
323.15 K, 30000 kPa	910.4 ± 1.6	–
323.15 K, 40000 kPa	915.8 ± 1.6	–
323.15 K, 45000 kPa	918.4 ± 1.6	–
323.15 K, 50000 kPa	920.9 ± 1.6	–
323.15 K, 60000 kPa	925.7 ± 1.6	–
323.15 K, Concentric cylinders viscometry	–	7.679 ± 0.17
328.15 K, 101.33 kPa	888.7 ± 1.5	–
328.15 K, Concentric cylinders viscometry	–	6.727 ± 0.15
333.15 K, 101.33 kPa	885.1 ± 1.5	–
333.15 K, Concentric cylinders viscometry	–	5.939 ± 0.13
338.15 K, 101.33 kPa	881.4 ± 1.5	–
338.15 K, Concentric cylinders viscometry	–	5.275 ± 0.12
343.15 K, 101.33 kPa	877.9 ± 1.5	–
343.15 K, Concentric cylinders viscometry	–	4.719 ± 0.11
348.15 K, 100 kPa	874 ± 1.5	–
348.15 K, 101.33 kPa	874.3 ± 1.5	–
348.15 K, 1000 kPa	874.7 ± 1.5	–
348.15 K, 5000 kPa	877.7 ± 1.5	–
348.15 K, 10000 kPa	881.3 ± 1.6	–
348.15 K, 15000 kPa	884.8 ± 1.6	–
348.15 K, 20000 kPa	888.2 ± 1.6	–
348.15 K, 30000 kPa	894.5 ± 1.6	–
348.15 K, 40000 kPa	900.5 ± 1.6	–
348.15 K, 45000 kPa	903.3 ± 1.6	–
348.15 K, 50000 kPa	906 ± 1.6	–
348.15 K, 60000 kPa	911.3 ± 1.6	–
348.15 K, Concentric cylinders viscometry	–	4.248 ± 0.096
353.15 K, 101.33 kPa	870.7 ± 1.5	–
353.15 K, Concentric cylinders viscometry	–	3.843 ± 0.087
358.15 K, 101.33 kPa	867.1 ± 1.5	–
358.15 K, Concentric cylinders viscometry	–	3.494 ± 0.079
363.15 K, 101.33 kPa	863.7 ± 1.5	–
363.15 K, Concentric cylinders viscometry	–	3.169 ± 0.072
368.15 K, 101.33 kPa	859.9 ± 1.5	–
368.15 K, Concentric cylinders viscometry	–	2.902 ± 0.066
373.15 K, 101.33 kPa	856.4 ± 1.5	–
373.15 K, 1000 kPa	856.9 ± 1.5	–
373.15 K, 5000 kPa	860.3 ± 1.5	–
373.15 K, 10000 kPa	864.3 ± 1.6	–
373.15 K, 15000 kPa	868.1 ± 1.6	–
373.15 K, 20000 kPa	871.8 ± 1.6	–
373.15 K, 30000 kPa	878.8 ± 1.6	–
373.15 K, 40000 kPa	885.2 ± 1.6	–
373.15 K, 45000 kPa	888.3 ± 1.6	–
373.15 K, 50000 kPa	891.3 ± 1.6	–
373.15 K, 60000 kPa	897 ± 1.7	–
373.15 K, Concentric cylinders viscometry	–	2.661 ± 0.061
398.15 K, 1000 kPa	839 ± 1.5	–
398.15 K, 5000 kPa	842.8 ± 1.5	–
398.15 K, 10000 kPa	847.3 ± 1.6	–
398.15 K, 15000 kPa	851.6 ± 1.6	–
398.15 K, 20000 kPa	855.8 ± 1.6	–
398.15 K, 30000 kPa	863.4 ± 1.6	–
398.15 K, 40000 kPa	870.4 ± 1.6	–
398.15 K, 45000 kPa	873.7 ± 1.6	–
398.15 K, 50000 kPa	877 ± 1.6	–
398.15 K, 60000 kPa	883.1 ± 1.7	–

viscosity [mPa·s], Falling or rolling sphere viscometry
Settings	298.15 K	313.15 K	323.15 K	348.15 K	373.15 K	398.15 K
100 kPa	17 ± 1.4	10.2 ± 0.8	7.53 ± 0.61	4.17 ± 0.34	2.67 ± 0.22	1.84 ± 0.15
1000 kPa	17.3 ± 1.4	10.3 ± 0.8	7.63 ± 0.62	4.21 ± 0.34	2.7 ± 0.22	1.86 ± 0.15
5000 kPa	18.4 ± 1.5	10.9 ± 0.9	8.09 ± 0.65	4.42 ± 0.36	2.84 ± 0.23	1.96 ± 0.16
10000 kPa	19.9 ± 1.6	11.7 ± 0.9	8.68 ± 0.7	4.69 ± 0.38	3.03 ± 0.25	2.07 ± 0.17
15000 kPa	21.5 ± 1.7	12.5 ± 1	9.29 ± 0.75	4.97 ± 0.4	3.22 ± 0.26	2.2 ± 0.18
20000 kPa	23.2 ± 1.9	13.4 ± 1.1	9.94 ± 0.8	5.28 ± 0.43	3.42 ± 0.28	2.32 ± 0.19
30000 kPa	26.8 ± 2.2	15.2 ± 1.2	11.3 ± 0.9	5.94 ± 0.48	3.83 ± 0.31	2.59 ± 0.21
40000 kPa	30.8 ± 2.5	17.3 ± 1.4	12.8 ± 1	6.68 ± 0.54	4.27 ± 0.35	2.86 ± 0.23
45000 kPa	33 ± 2.7	18.4 ± 1.5	13.6 ± 1.1	7.07 ± 0.57	4.49 ± 0.36	3.01 ± 0.24
50000 kPa	35.2 ± 2.8	19.6 ± 1.6	14.4 ± 1.2	7.48 ± 0.61	4.72 ± 0.38	3.16 ± 0.26
60000 kPa	40 ± 3.2	22 ± 1.8	16 ± 1.3	8.37 ± 0.68	5.19 ± 0.42	3.46 ± 0.28
